Tested on: AF cells
Assay: Colony formation of OCT4 lentivirus-transduced AF cells in ES or endothelial cell medium
Type: cell-based, human
Description: Transduction via integrating plasmid. Lentivirus based vectors carrying human SOX2 or OCT4 gene, or GFP only gene, each expressed under control of either the SFFV promoter or EF1α promoter, were packaged using the 293FT cell line (Invitrogen/Life Technologies, Inc.) to produce lentivirus. The viruses were concentrated by centrifugation and stored at −80° C. One day before infection, tissue culture dishes were coated with poly-L-ornithine (PLO) and laminin AF, BM, or HFF cells were seeded at a density of 15,000 cells/cm^2. Lentiviruses were added at a MOI of 10-100 in the presence of 8 μg/ml polybrene (EMD Millipore, Billerica, Mass.) for 6 hours. Efficiency was measured after 24-48 hours by expression of green fluorescence.
After viral transduction, cells were transferred to human ES (embryonic stem cell) medium (supplemented with 20% Knockout Serum replacement, 2 mM glutamine, 0.1 mM non-essential amino acids, 10 ng/ml bFGF, 100 μM β-Mercaptoethanol) or endothelial cell medium, such as EGM2 (Lonza, Inc.).

Row | SMILES | increase of the efficiency of colony formation (accelerated and increased) (0.1 mM in the culture media) | increase of the efficiency of colony formation (accelerated and increased) (10 μM in the culture media)
1 | Nc1ncnc2c1nc(Br)n2[C@@H]1O[C@@H]2COP(=O)(O)O[C@H]2[C@H]1O [8-Br-cAMP, (1S,6R,8R,9R)-8-(6-amino-8-bromopurin-9-yl)-3-hydroxy-3-oxo-2,4,7-trioxa-3λ5-phosphabicyclo[4.3.0]nonan-9-ol] | approximately 15% | –
2 | Cc1cccc(-c2n[nH]cc2-c2ccc3ncccc3n2)n1 [compound 616452, 2-(3-(6-Methylpyridin-2-yl)-1H-pyrazol-4-yl)-1,5-naphthyridine] | – | approximately 15%

Reference: patent US20140271584A1, “Methods and Compositions for Direct Reprogramming of Somatic Cells to Stem Cells, and Uses of these Cells” (THE RESEARCH FOUNDATION FOR THE STATE UNIVERSITY OF NEW YORK, priority 2013, published 2014)
